Starred links: 1 amine or outer side, 2 acyl side, 3 side chain; linkers in the order of their positions; H or OH if unused. Residues, ends and D or L forms follow the SMILES beside them. *: point of attachment. 4Abz = Nc1ccc(C(=O)O)cc1; CO = O=C([*:1])[*:2]; CF3 = FC(F)(F)*

By melting point is commonly meant the temperature of the solid-liquid transition. In turn, `CN1CC[C@@H](c2c(O)cc(O)c3c(=O)cc(-c4c(F)cccc4F)oc23)[C@@H]1CO` gave a melting point of 242 to 244 °C. The same measure for `CCCOc1cc2c(cc1C(C)c1ccc(OC)cc1)OCO2` (stereo not drawn): 84 °C.

As for `N#Cc1ccc(N(c2ccc(N)cc2)n2ccnc2)cc1`, the melting point came out at 147 °C.

The compound `CC(C)(C)c1cc(-c2n[nH]c(=S)o2)cc(C(C)(C)C)c1O` registered a melting point of 254 °C. On to `CCOC(=O)C(C)(C)Oc1ccc(-c2ccc(CCNC(=O)c3ccc(C)cc3)cc2)cc1`, for which the melting point is 214 °C. Compound `COC(=O)Cn1c(C(=O)NC(N)=S)cc2cc(OC)ccc21` had a melting point of 202 to 206 °C. In the case of `CS(=O)(=O)Oc1ccc(C(c2ccc(OS(C)(=O)=O)c([N+](=O)[O-])c2)(C(F)(F)F)C(F)(F)F)cc1[N+](=O)[O-]` it was 119 to 121 °C. As for `COc1cc(C2=NNC(=O)Cc3cc4c(cc32)OCO4)ccc1N`, the melting point was 147 to 150 °C. In the case of `CCn1c(=O)c2[nH]c(/C=C/c3ccc4c(c3)OCO4)nc2n(CC)c1=O`, the melting point was greater than 275 °C. In turn, `COc1cc(OC)nc(Sc2sccc2NS(=O)(=O)C(F)(F)F)n1` displayed a melting point of 103 to 104 °C. Turning to `ClCc1c(Cl)ccc2cc(Cl)cnc12`, the melting point is 129 °C. `CCc1nc2c(N)nc3ccccc3c2n1CCCCNC(=O)C(C)C` showed a melting point of 155 to 156 °C.

As to `CC1(C)CCC(C)(C)c2cc(C(=O)NNC(=O)c3ccc(C#N)cc3)ccc21`, the melting point was in the range of 274 to 277 °C.

Compound `Nc1cccc(C=C2c3ccccc3CCc3ccccc32)c1` registered a melting point of 204 °C.

Compound `CCN(CC)c1cc2c(cc1C)Nc1c(cc(NC(=O)c3ccc(OC)cc3)c3ncn(-c4ccc(OC)cc4)c13)O2` gave a melting point of 189 to 192 °C. Compound `O=C(NN1CCN(CCc2c[nH]c3ccccc23)CC1)c1ccc(O)cc1` registered a melting point of 190 to 192 °C.

`CCOC(=O)COc1cc2c(cc1Cl)C(=O)CC1(CCCCC1)O2` came in with a melting point of 116 to 117 °C. The same measure for `COCCSc1[nH]nc(-c2ccc(Cl)cc2)c1-c1ccncc1`: 189 to 190 °C. `CSc1nnc(-c2ccc(C)cc2)c(-c2ccc(C)cc2)n1` came in with a melting point of 170 to 172 °C. The same measure for `C/C(=C\Cn1oc(=O)[nH]c1=O)c1cccc(OCc2nc(-c3ccc(OC(F)(F)F)cc3)oc2C)c1`: 145 to 146 °C; for `O=P(CN(O)CP(=O)(OCc1ccccc1)OCc1ccccc1)(OCc1ccccc1)OCc1ccccc1`: 71 to 73 °C. In turn, `CN1CCC(O)(c2cn(-c3ccnc(NC4CCCC4)n3)c(-c3cccc(C(F)(F)F)c3)n2)CC1` came in with a melting point of 189 to 193 °C. In turn, `Cc1cccc2c1C(=O)N(C)Cc1c(I)ncn1-2` displayed a melting point of 106 to 108 °C. As to `COC(=O)C(C)=CC(C)=Cc1cc([N+](=O)[O-])ccc1Cl`, the melting point was in the range of 88 to 90 °C. With `CC(=O)NNc1nc(C(F)(F)F)nc(-c2ccc(S(C)(=O)=O)cc2)c1-c1ccccc1F`, the melting point fell in the range of 281 to 283 °C. `COc1ccccc1NC(=O)Nc1nc(Nc2ccccc2-c2ccccc2)nc(N(CCC(=O)O)Cc2cccs2)n1` gave a melting point of 115 to 120 °C. `O=S(=O)(c1ccc(F)cc1)c1ccc(SC2SCC(O)C(O)C2O)cc1` (stereo not drawn) showed a melting point of 136 to 138 °C. In the case of `CCCCOc1c(C#N)c(C#N)c(OCCCC)c2ccccc12` it was 69 to 70 °C; in that of `O=C1c2cccc(O)c2C2(OCCS2)c2c(O)cccc21`, 197 to 199 °C; in that of `COc1ccc(NC(=O)c2ccncc2)c2c1oc1ccccc12`, 221 °C. `CCOC(=O)C(C)Oc1ccc(N(C)c2nc3cc(Cl)ccc3o2)cc1` (stereo not drawn) displayed a melting point of 68 to 68.6 °C.

Take `CC(C)C(NC(=O)Nc1ccc(C(=O)NCC(=O)O)cc1)C(=O)N1CCCC1C(=O)NC(C(=O)C(F)(F)F)C(C)C` (stereo not drawn) ({Gly-4Abz-CO}-Val-Pro-Val-CF3; configuration not given here): the melting point was 98 to 128 °C. Compound `CC(=O)NCCOc1nc(-c2ccc(F)cc2C)c2ccc(=O)n(-c3c(F)cccc3F)c2n1` had a melting point of 75 to 79 °C.

The compound `CC12C=CCC1C1CCC3=C(CCC(=O)C3)C1CC2` (stereo not drawn) returned a melting point of 112 to 116 °C. Compound `C=C(C)C(=O)Nc1ccc(-n2nc(C(F)(F)F)cc2C(F)(F)F)cc1` registered a melting point of 160 to 162 °C. The compound `COc1ccc(C(=O)O)c(N)c1OC` came in with a melting point of 183 to 184 °C. For `Cc1cccc(C)c1N(CC(C)O)S(C)(=O)=O` (stereo not drawn), the melting point lay within 81 to 84 °C. The same measure for `O=C(CCN1C(=O)CSC1=S)Nc1ccccc1O`: 168 to 170 °C; for `[N-]=[N+]=Nc1nc(N)nc2nc[nH]c12`: greater than 260 °C; for `CC(=O)NNC1=Nc2sc(Cl)cc2C(c2ccccc2Cl)=NC1`: 211 to 213 °C. `CC(NC(=O)c1cc(Cl)ccc1NC(=O)C1CC(O)=NN1c1ncccc1Cl)C1CC1` (stereo not drawn) yielded a melting point of 165 to 167 °C. `COc1cc2c(N3CCN(Cc4ccccc4)CC3)nc(-c3ccc(Cl)cc3)nc2c(OC)c1OC`: the melting point worked out at 150 °C. In the case of `COc1ccc(N2CCN(c3c(C)c(C)c4c(c3C)CC(C)(C)O4)CC2)cn1` it was 178 to 180 °C; in that of `COc1cccc2c1C(O)c1ccccc1C21CCN(C)CC1` (stereo not drawn), 149 to 151 °C. In turn, `CCN(CC)c1ccc(-c2cc(-c3ccc(C(=O)O)cc3)ccc2CC(O)CO)cc1C(C)(C)C` (stereo not drawn) gave a melting point of 130 °C. The compound `COc1ccccc1-c1ccccc1/C=C/C1CC(O)CC(=O)O1` (stereo not drawn) registered a melting point of 129 to 131 °C. `CCOC(=O)c1cn(-c2ccc(Oc3ccccc3)cc2)cn1` came in with a melting point of 113 to 114 °C. Compound `CCNC(=O)c1nnc(S)o1` showed a melting point of 210 °C.

On to `N#Cc1c[nH]c2cccc(OCC3CO3)c12` (stereo not drawn), for which the melting point is 116 to 120 °C.

As to `O=C(O)C[C@H](NC(=O)OCc1ccccc1)C(=O)Nc1cc(Cc2n[nH]c(=O)c3ccccc23)ccc1F`, the melting point fell in the range of 188 to 190 °C. Take `COC(C)=CC(=O)Nc1cccc(NC(C)=O)c1`: the melting point was found to be 167 °C. The same measure for `NC1=NN(c2ccc(C(=O)C(F)(F)F)cc2)C(c2ccccc2)C1` (stereo not drawn): 214 to 216 °C; for `Cc1cc(O)c(C)c2c1C(C)CC(C)(C)O2` (stereo not drawn): 88 to 89 °C; for `CC(C)CC1(C(CCN2C(=O)c3cc(Cl)c(Cl)cc3C2=O)C(=O)NO)CCN(CCc2ccccc2)C1=O` (stereo not drawn): 207 to 208 °C. In turn, `COc1cccc(Sc2c(C)n(CC(=O)O)c3ccc(NS(C)(=O)=O)cc23)c1` displayed a melting point of 292 °C. Compound `C=CCOc1nc2c(c3ccccc13)c1cc(Cl)ccc1n2C` came in with a melting point of 147 to 148 °C. Compound `O=C(O)CCSC(SCCC(=O)O)c1cccc(OCc2ccc3ccccc3n2)c1` gave a melting point of 150 to 152 °C. The compound `CO[C@@H]1C(S(=O)(=O)c2ccccc2)=C[C@H](C)[C@@H](O[Si](C)(C)C(C)(C)C)[C@@H](C)[C@@H]1O[Si](C)(C)C(C)(C)C` yielded a melting point of 94 to 96 °C. In the case of `CCOC(=O)/C=C/c1c(C)nn(Cc2ccc(OCc3nc(-c4ccccc4)oc3C)cc2)c1C`, the melting point lay in the range of 98 to 99 °C. `COc1cc(COc2nn(-c3ccccc3)cc2CCC(=O)O)ccc1OCc1nc(-c2ccco2)oc1C` had a melting point of 161 to 162 °C. With `Cn1ncc2c1CC(C)(C)c1cnn(C)c1-2`, the melting point is 105 to 108 °C. As to `CCCCN(NC(=O)c1ccccc1)C(=O)c1ccc(Cl)c(Cl)c1`, the melting point fell in the range of 234 to 236 °C. In turn, `O=C(Nc1nccs1)C(CC1CCCC1)c1ccc(NS(=O)(=O)C(F)(F)F)cc1` (stereo not drawn) had a melting point of 70 to 74 °C. In the case of `COc1ccc(-c2ccc3c(c2)c2ccc(C=Cc4ccccc4)nc2n3S(=O)(=O)c2ccccc2)cc1`, the melting point lay within 193 to 195 °C.

Turning to `Cc1c(C)n(CC=Cc2ccccc2)c2c(OCc3ccc(F)cc3)nncc12`, the melting point was 124 to 126 °C. As to `COC(=O)C(C)(C)OCc1cc2cc(C(F)(F)F)ccc2n1S(=O)(=O)c1cccc2nc(C)sc12`, the melting point lay in the range of 118 to 120 °C. The same measure for `O=[N+]([O-])c1ccc2c(c1)Sc1cc(Br)ccc1N2`: greater than 250 °C; for `COc1ccc(CN(C)CCCOc2ccc(S(=O)(=O)c3c(C(C)C)cn4ccccc34)cc2)cc1OC`: 96 to 100 °C. The same measure for `CN1C(=O)CN=C(c2ccccc2F)c2c1ccc(NC(=O)Nc1ccc(Cl)cc1)c2Cl`: 285 °C.

`CCCCCCCCCCCCCCCC(=O)c1c(Br)cc(OC)c(OC)c1C(=O)NC[C@@H]1CCCN1CC` had a melting point of 46 to 48 °C.

The compound `CN(C)CC(=Cc1ccc(/C=C/C(=O)O)cc1)O[Si](C)(C)C(C)(C)C` returned a melting point of 207 °C. On to `O=C1N=C(N2CCOCC2)SC1=Cc1ccccc1-c1ccc(O)c(C23CC4CC(CC(C4)C2)C3)c1`, for which the melting point was in the range of 321 to 324 °C. Compound `CCN(CC)CCNC(=O)c1nc(Cl)c(OC)nc1OC` gave a melting point of 88 °C. In turn, `CC(=O)Oc1ccc(-c2ccc3cc(OC(C)=O)ccc3c2)cc1` had a melting point of 178 to 180 °C. For the compound `CCCCSc1cc(C(=O)OCC#N)cc(S(N)(=O)=O)c1Oc1ccccc1`, the melting point was in the range of 134 to 135 °C. In turn, `Cc1cccc(Nc2nnc(Cc3ccncc3)c3ccccc23)c1` yielded a melting point of 141 to 143 °C. The same measure for `COc1ccnc(CSc2nc3cscc3n2COC(C)=O)c1`: 111 to 113 °C. In the case of `O=C(Nc1nc(C(F)(F)F)co1)C1c2ccc(F)cc2Oc2cc(F)ccc21`, the melting point was 265 °C. Take `O=C1c2cc(N(CCO)CCO)ccc2OC12CC2`: the melting point fell in the range of 96 to 97 °C. Turning to `CNC(=S)C1(c2ccccn2)CCCS1` (stereo not drawn), the melting point was found to be 131 °C. `C1CCc2c(c3c(N4CCCC4)nc(N4CCCC4)nc3n2CCN2CCOCC2)C1` yielded a melting point of 132 to 133 °C. In the case of `COc1ccc(C(=O)c2ccc(OCc3coc(-c4ccccc4)n3)cc2)c(OC(C)(C)C(=O)O)c1` it was 165 to 167 °C; in that of `CC(=O)OCCCN(C)CCCN(C)C(=O)[C@@H]1CCCN1S(=O)(=O)c1ccc(Cl)c(COc2cccc3c(-n4ccnc4)cc(C)nc23)c1Cl`, 90 °C.

(Values after a melting point compilation (Tetko et al.; mined from patent text by program, amines drawn as free bases though some values may be those of a salt).)
